# “And” between values parts separate entries of the source, which are not always exact repeats. Equal values may be shown once.
# Assays:
# [1] = system: human synovial fibroblasts (line derived from OA joints); assay: In vitro biosynthesis of hyaluronic acid by synovial fibroblasts; format: cell-based; conditions: for in vitro biosynthesis of hyaluronic acid (HA): FIG. 1, 2, 17
# [2] = system: mature rabbit articular cartilage; conditions: 8 week intra-articular treatment
# [3] = molecular target: T1, human granulocyte elastase (HGE) (Homo sapiens, UniProt P08246); assay: Inhibition of human granulocyte elastase (HGE), SAAVNA substrate; format: biochemical
# T1 construct: HGE prepared according to the method of Andrews et al; from tissue
# T1 sequence (P08246 30-247 limits assumed): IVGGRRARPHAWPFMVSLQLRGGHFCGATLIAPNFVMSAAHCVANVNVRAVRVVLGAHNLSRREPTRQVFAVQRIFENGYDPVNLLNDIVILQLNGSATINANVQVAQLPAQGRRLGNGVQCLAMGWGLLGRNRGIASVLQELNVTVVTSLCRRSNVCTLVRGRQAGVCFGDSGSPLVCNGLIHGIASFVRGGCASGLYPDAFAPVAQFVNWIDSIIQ
# Description: (a) HGE prepared according to the method of Andrews et al (Chem. Biological Int. 47, 157, 1983) was used to degrade
# the synthetic specific substrate for this enzyme-(succinyl-dialanyl-valyl nitroanalide (SAAVNA)).
# In these experiments the inhibitory activity of DH40J, PPS as SP54® and mixtures of SP54® and ZnSO4 in various proportions against HGE using the same condition as in (a), except that a different enzyme preparation was used, were investigated. […] A variety of ratios of Zn^+ to SP54® were tested for their ability to inhibit the HGE.
# [4] = in vitro; Arch. Int. Pharmacodyn. Ther. 282, 196-208 (1986); cited from earlier work
# [5] = system: articular cartilages implanted in rat air pouches; assay: Rat air pouch model, loss of proteoglycans from implanted articular cartilage; format: in vivo; conditions: 10 mg/kg/day into the air pouch for seven days, peptone inflammation; FIG. 12
# Protocol: This model was originally described by Sin, M. Y., et al J. Path. 141, 23 (1984) and Sedgwick A. D. et al Ann. Rheum. Dis. 43, 418 (1984) and provides a convenient and reproducable method of evaluating the effects of drugs on cartilage metabolism in vivo. This model was used to investigate the influence of SP54® and DH40J when administered into the rat air pouch at 10 mg/kg on the loss of cartilage proteoglycans (PGs) induced by an inflammatory cell invasion of the pouch.
# Air pouches were created on the dorsal surface of male 200 gm Wistar rats by the initial injection of 20 ml of sterile air. Re-injection every second day maintained cavity inflation. Articular cartilage (AC) aseptically harvested from the knee joints of 10 week old New Zealand White rabbits, was implanted into formed 7 day old rat air pouches. Drugs (10 mg/kg), diluted in saline, were administered daily into the air pouch beginning the day of cartilage implantation. Saline was administered to a control group. Inflammation of the air pouch was achieved by the injection of 10 ml of sterile 3% peptone into the pouch every second day, beginning the day of cartilage implantation. […] Cells in the APF were stained with crystal violet and a total cell count determined. […] Implanted AC (8-10 mgs) was digested by papain and PG content was determined by hexuronic acid and sulphated glycosaminoglycan (GAG) analysis. […]
# [6] = Table 7, different enzyme preparation, single inhibitor
Compound,in vitro biosynthesis of hyaluronic acid (HA) [1],"4M Gu HCl,PG Extractability ([2]; individual joints)",35S-PG Specific (activity) ([2]; individual joints),"Hexuronic Acid(UA) ([2]; individual joints, hydrocortisone 50 mg, pentosan polysulphate 5 mg)","4M Gu HCl,PG Extractability Mean ± SD ([2]; n = 4 joints)",35S-PG Specific (activity) Mean ± SD ([2]; n = 4 joints),Hexuronic Acid(UA) Mean ± SD ([2]; n = 4 joints),"IC50 (HGE inhibition) [3, 6]",improving proteoglycan incorporation into the extracellular matrix [4],"restoration of HA biosynthesis suppressed by hydrocortisone ([1]; hydrocortisone at 10^6 M (so in the source), drug at 0.25 ug/ml, FIG. 19, 21)","restoration of HA biosynthesis suppressed by hydrocortisone ([1]; hydrocortisone at 10^8 M (so in the source), drug 0.1-1.0 ug/ml, FIG. 20)",prevention of the effects of hydrocortisone on synovial fibroblast biosynthesis of HA ([1]; in vitro),loss of proteoglycans (uronic acid) from implanted articular cartilage [5],"IC50 (HGE inhibition) ([3]; Table 6, 1 μg HGE/ml, 0.2 mM SAAVNA, pH 7.4, 37° C.)","% DIFFERENCE from SP54 (IC50, HGE) ([3]; Table 7, single inhibitor)"
"C[C@]12CCC(=O)C=C1CC[C@@H]1[C@@H]2[C@@H](O)C[C@@]2(C)[C@H]1CC[C@]2(O)C(=O)CO [Cortisone, hydrocortisone]",progressively inhibited,53.2% and 57.6% and 56.8% and 51.5%,896.8 DPM/ug UA and 866.6 DPM/ug UA and 1061.4 DPM/ug UA and 854.2 DPM/ug UA,27.4 ug/mg dry wt. and 23.2 ug/mg dry wt. and 20.0 ug/mg dry wt. and 21.8 ug/mg dry wt.,54.7 ± 2.9%,919.7 ± 96.1 DPM/ug UA,23.1 ± 3.1 ug/mg dry wt.,–,–,–,–,–,–,–,–
"O=S(=O)([O-])[O-].[Zn+2] [ZnSO4, zinc sulphate]",–,–,–,–,–,–,–,10 µg/mL,–,–,–,–,–,–,–
pentosan polysulphate sodium salt [SP54],stimulates the biosynthesis of hyaluronic acid (HA),–,–,–,–,–,–,0.381 µg/mL,active in vitro in improving proteoglycan incorporation into the extracellular matrix,"almost, but not totally, restored to control value",fully restored synthesis to control values,could prevent the deleterious effects of hydrocortisone,equally effective in preventing the loss of proteoglycans,0.249 µg/mL,0%
